Test results published in patent US20130017616A1, “Methods For Treating Inflammation” (Vanderbilt University - Center for Technology Transfer and …, priority 2011, published 2013).

Key:
RNase [1] = target: T1, RNase (Bos taurus, UniProt P61823); assay: Measurements of RNase activity after incubation with HOCl, HOBr or PM; format: biochemical; conditions: for effect on RNase activity: RNase 15 μg/mL incubated with different concentrations of the substance at 37° C. for 2 h
T1 construct: purchased Worthington Biochemical Corporation
T1 sequence (P61823 27-150): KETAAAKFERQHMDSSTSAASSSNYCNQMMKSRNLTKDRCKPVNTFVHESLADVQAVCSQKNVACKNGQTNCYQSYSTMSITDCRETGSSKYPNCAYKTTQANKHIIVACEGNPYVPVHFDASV
Procedure: FIG. 1. […] RNase (15 μg/mL) was incubated alone or with different concentrations of HOCl, HOBr or PM at 37° C. for 2 h. Enzymatic activity was determined as described under Experimental Procedures.
Measurements of RNase Activity—RNase activity was determined by measuring the formation of acid-soluble oligonucleotide as described by Kalnitsky et al, with some modifications previously described by Voziyan et al. For the assay, 100 μL of 3 μg/mL RNase in 100 mM sodium acetate, pH 5.0, was mixed with 100 μL of 1% yeast RNA in the same buffer. After the incubation at 37° C. for 5 min, the reaction was stopped by the addition of 100 μL of an ice-cold solution of 0.8% lanthanum nitrate in 18% perchloric acid. The incubations were kept on ice for 5 min to ensure complete precipitation of undigested RNA and then centrifuged at 12000 g for 10 min. An aliquot of the supernatant (20 μL) was diluted to 1 mL with distilled water, the amount of digested (solubilized) RNA was determined by measuring the absorbance at 260 nm. The activity of RNase incubated either alone or with PM or an amino acid substitute at 37° C. was monitored separately and used as a reference for each incubation time.

EHS collagen IV = assay: Chlorination of type IV collagen by HOCl, N-chloramine assay; format: biochemical, murine; conditions: HOCl with equimolar PM, 1 h
Procedure: N-Chloramine Assay/ TMB Assay—The presence of N-chloramines were determined by the method of Witko et al. [3] and Dypbukt et al. [4]. The former method is based on the colorimetric measurement of triiodide ions formed by the oxidation of potassium iodide (KI) in solution. Chloroamine-T, a commercially available source of N-chloramine, was used to calibrate the assay. 100 mM chloramine-T solution was made fresh in distilled H2O. The 100 mM chloramines-T was diluted to final concentrations ranging from 20 to 100 μM immediately before use. The direct oxidation of Kl by NaOCl was also determined and these values were subtracted as background from the corresponding treated samples. The resulting difference represented the amount of N-chloramine present in each sample. In the latter method the developing reagent was composed of 2 mM TMB in 400 mM acetate buffer, pH 5.4, containing 10% dimethlyforamide and 100 μM sodium iodide. This solution was prepared by dissolving TMB in 100% DMF, diluting with acetate buffer to get the desired final concentration of TMB, and then adding sodium iodide. When the developing reagent was mixed with the solutions of chloramines, the final concentration of TMB was always at least 10 times that of the concentration of chloramines. This prevented further oxidation of the blue product. […]

RNase [2] = assay: LC-MS/MS analysis of RNase modifications (halogenation of Tyr-92 and Tyr-97); format: biochemical; conditions: RNase with HOCl or HOBr, with or without PM
Procedure: FIG. 3A. Modification of functionally important chlorinated Tyr species (Y-92 and Y-97) in RNase by HOCl and protection by PM. *P<0.05, control vs. HOCl (n=3); **P<0.05, HOCl vs. HOCl+PM (n=3).
FIG. 3B. Modification of functionally important chlorinated Tyr species (Y-92 and Y-97) in RNase by HOBr and protection by PM. *P<0.05, control vs. HOBr; **P<0.05, HOBr vs. HOBr+PM.
LC-MS/MS analysis of RNase modifications—The site-specific modifications in RNase were analyzed by tandem mass spectrometry. The samples were prepared using the spin filter protocol for proteomic analysis. RNase samples were digested either with trypsin. The data-dependent scanning was performed using a LTQ Orbitrap^TM (Thermo Fischer Scientific, San Jose, Calif.) mass spectrometer equipped with an Eksigent AS1 autosampler and an Eksigent 1D+HPLC pump attached directly to the instrument's nanospray source. The peptides were separated on a capillary tip, 100 μm×18 cm, packed with C18 resin (Jupiter C18, 3 μm, 300 Å, Phenomenex, Torrance, Calif.) using an inline vented trapping column that was 100 μm×6 cm. […]
The data generated from the data-dependent LC-MS/MS experiments were analyzed using Sequest. […] The peak containing the peptide of interest was extracted from the chromatogram and the area of the peak was determined using Xcalibur™ software. […]

[3] = test system: integrin α1β1 binding to collagen IV; assay: Modification of collagen IV and integrin binding assay (solid phase); set-up: species or system Human; conditions: 0.1 mM HOCl or HOBr with 0.1 mM PM, 1 h; integrin 1 μg/mL, 2 h at 30° C.
Procedure: FIG. 6B. EHS Collagen IV was coated onto 96-well plate overnight at 4° C. Collagen IV was incubated with 0.1 mM HOCl or HOBr either with or without 0.1 mM PM for 1 h at 37° C. Collagen IV was then incubated with 1 μg/mL of integrin α1β1 for 2 h at 30° C. Integrin binding was detected in solid phase binding assay using integrin α1β1 antibody. The bars represent background-subtracted […] binding±SD (n=4). *P<0.05, control vs. HOCl or HOBr; **P<0.05, HOCl or HOBr vs. HOCl+PM or HOBr+PM.
Modification of Collagen IV and Integrin Binding Assay—20 μg/mL of type IV collagen in 20 mM sodium phosphate buffer, 7.5, was immobilized on 96 well plates at 4° C. overnight. Nonspecific binding sites were blocked with 1% BSA in TBS for 2 hr at 30° C. as previously described. Wells were washed five times with either TBS or 100 mM sodium phosphate, pH 7.5, before being incubated in the same buffer with or without HOCl/HOBr alone or HOCl/l HOBr plus PM. […] After extensive washing, the bound antibodies were detected using alkaline phosphatase-conjugated anti-mouse IgG antibodies. p-Nitrophenyl phosphate substrate (Sigma) was added to the wells, and absorbance was read at 410 nm. Readings from the samples containing EDTA were subtracted from all the data to obtain the baseline corrected magnesium dependent binding.

| Compound | effect on RNase activity (RNase [1]) | protection of RNase enzymatic activity against hypohalous acids (RNase [1]; RNase with HOCl or HOBr plus PM) | chlorination of collagen IV by hypochlorous acid (protein chloramine content) (EHS collagen IV) | halogenation of Tyr-92 and Tyr-97 residues in RNase (RNase [2]) | binding of integrin α1β1 to collagen IV in the presence of HOCl or HOBr [3] |
| --- | --- | --- | --- | --- | --- |
| OCl [HOCl, hypochlorous acid] | inhibit RNase activity |  |  |  |  |
| OBr [HOBr, hypobromous acid] | inhibit RNase activity |  |  |  |  |
| Cc1ncc(CO)c(CN)c1O [PM, Pyridoxamine] | no effect on activity | protected enzymatic activity | significantly inhibited chlorination | inhibited halogenation | protected binding |
